Measurements taken from ChEMBL document CHEMBL4507320, “Data for DCP probe NVS-MALT1” (2021).

Experiments:
[1] = molecular target: Tyrosine-protein kinase Fgr (Homo sapiens) (UniProt P09769); details: Compound concentration 1000.0 nM
[2] = molecular target: Tyrosine-protein kinase JAK1 (Homo sapiens) (UniProt P23458); details: Compound concentration 1000.0 nM
[3] = molecular target: Dual specificity tyrosine-phosphorylation-regulated kinase 2 (Homo sapiens) (UniProt Q92630); details: Compound concentration 1000.0 nM
[4] = molecular target: Serine/threonine-protein kinase TAO1 (Homo sapiens) (UniProt Q7L7X3); details: Compound concentration 1000.0 nM
[5] = molecular target: Mitogen-activated protein kinase kinase kinase 7 (Homo sapiens) (UniProt O43318); details: Compound concentration 1000.0 nM
[6] = molecular target: Tyrosine-protein kinase JAK2 (Homo sapiens) (UniProt O60674); details: Compound concentration 1000.0 nM
[7] = molecular target: Mitogen-activated protein kinase kinase kinase 14 (Homo sapiens) (UniProt Q99558); details: Compound concentration 1000.0 nM
[8] = molecular target: Serine/threonine-protein kinase PAK 5 (Homo sapiens) (UniProt Q9P286); details: Compound concentration 1000.0 nM
[9] = molecular target: Ephrin type-A receptor 3 (Homo sapiens) (UniProt P29320); details: Compound concentration 1000.0 nM
[10] = molecular target: Serine/threonine-protein kinase PAK 2 (Homo sapiens) (UniProt Q13177); details: Compound concentration 1000.0 nM
[11] = molecular target: Cyclin-dependent kinase 14 (Homo sapiens) (UniProt O94921); details: Compound concentration 1000.0 nM
[12] = molecular target: G protein-coupled receptor kinase 4 (Homo sapiens) (UniProt P32298); details: Compound concentration 1000.0 nM
[13] = molecular target: Microtubule-associated serine/threonine-protein kinase 1 (Homo sapiens) (UniProt Q9Y2H9); details: Compound concentration 1000.0 nM
[14] = molecular target: Serine/threonine-protein kinase pim-2 (Homo sapiens) (UniProt Q9P1W9); details: Compound concentration 1000.0 nM
[15] = system: Tyrosine-protein kinase ABL1 (Homo sapiens), P00519 [F317I]; details: Compound concentration 1000.0 nM
[16] = molecular target: Mitogen-activated protein kinase kinase kinase 6 (Homo sapiens) (UniProt O95382); details: Compound concentration 1000.0 nM
[17] = molecular target: Ephrin type-B receptor 2 (Homo sapiens) (UniProt P29323); details: Compound concentration 1000.0 nM
[18] = molecular target: Sigma intracellular receptor 2 (Homo sapiens, UniProt Q5BJF2); details: Compound concentration 10.0 uM
[19] = molecular target: Tyrosine-protein kinase ITK/TSK (Homo sapiens) (UniProt Q08881); details: Compound concentration 1000.0 nM
[20] = molecular target: Mitogen-activated protein kinase kinase kinase 13 (Homo sapiens) (UniProt O43283); details: Compound concentration 1000.0 nM
[21] = molecular target: Interleukin-1 receptor-associated kinase 1 (Homo sapiens) (UniProt P51617); details: Compound concentration 1000.0 nM
Chain of Interleukin-1 receptor-associated kinase 1 (Homo sapiens) (P51617 whole entry, looked up): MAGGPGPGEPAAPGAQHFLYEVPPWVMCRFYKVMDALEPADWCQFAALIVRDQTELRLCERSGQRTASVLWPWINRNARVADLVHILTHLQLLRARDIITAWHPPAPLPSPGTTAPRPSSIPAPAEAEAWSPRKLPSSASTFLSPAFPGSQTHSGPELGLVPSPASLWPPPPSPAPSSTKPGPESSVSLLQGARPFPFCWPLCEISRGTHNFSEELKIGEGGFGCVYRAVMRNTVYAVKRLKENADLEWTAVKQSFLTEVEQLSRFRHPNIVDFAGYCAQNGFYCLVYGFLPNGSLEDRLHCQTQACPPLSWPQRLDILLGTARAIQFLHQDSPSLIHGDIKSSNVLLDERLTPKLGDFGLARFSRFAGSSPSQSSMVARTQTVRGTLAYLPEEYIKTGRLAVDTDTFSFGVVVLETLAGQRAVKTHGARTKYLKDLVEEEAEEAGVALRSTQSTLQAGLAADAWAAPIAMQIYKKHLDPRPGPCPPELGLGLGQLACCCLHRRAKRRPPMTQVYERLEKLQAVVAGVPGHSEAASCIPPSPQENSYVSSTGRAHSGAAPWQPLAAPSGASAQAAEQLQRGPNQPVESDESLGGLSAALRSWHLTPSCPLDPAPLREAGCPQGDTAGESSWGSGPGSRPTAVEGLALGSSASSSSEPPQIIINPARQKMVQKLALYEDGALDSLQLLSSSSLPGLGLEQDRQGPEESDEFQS

[22] = molecular target: Serine/threonine-protein kinase MARK2 (Homo sapiens) (UniProt Q7KZI7); details: Compound concentration 1000.0 nM
[23] = molecular target: STE20/SPS1-related proline-alanine-rich protein kinase (Homo sapiens) (UniProt Q9UEW8); details: Compound concentration 1000.0 nM
[24] = molecular target: Serine/threonine-protein kinase ULK3 (Homo sapiens) (UniProt Q6PHR2); details: Compound concentration 1000.0 nM
Chain of Serine/threonine-protein kinase ULK3 (Homo sapiens) (Q6PHR2 whole entry): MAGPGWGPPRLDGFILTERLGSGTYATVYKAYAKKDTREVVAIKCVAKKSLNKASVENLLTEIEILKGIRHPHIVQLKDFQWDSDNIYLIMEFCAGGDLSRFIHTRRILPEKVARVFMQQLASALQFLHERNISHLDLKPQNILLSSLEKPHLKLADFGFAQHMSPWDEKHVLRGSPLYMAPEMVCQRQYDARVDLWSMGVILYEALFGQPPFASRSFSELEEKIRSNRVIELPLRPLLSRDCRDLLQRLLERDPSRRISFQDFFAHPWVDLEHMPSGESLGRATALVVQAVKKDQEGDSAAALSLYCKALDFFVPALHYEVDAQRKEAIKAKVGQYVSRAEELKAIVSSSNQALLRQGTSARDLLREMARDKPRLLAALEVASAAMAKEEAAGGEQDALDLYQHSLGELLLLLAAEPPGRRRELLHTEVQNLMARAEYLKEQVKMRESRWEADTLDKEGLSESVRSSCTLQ

[25] = system: Mast/stem cell growth factor receptor Kit (Homo sapiens), P10721 [D816V]; details: Compound concentration 1000.0 nM
[26] = molecular target: Phosphatidylinositol 3-kinase C2 domain-containing subunit gamma (Homo sapiens) (UniProt O75747); details: Compound concentration 1000.0 nM
[27] = molecular target: Serine/threonine-protein kinase WNK4 (Homo sapiens) (UniProt Q96J92); details: Compound concentration 1000.0 nM
[28] = system: Receptor-type tyrosine-protein kinase FLT3 (Homo sapiens), P36888 [UNDEFINED MUTATION]; details: Compound concentration 1000.0 nM
[29] = molecular target: SRSF protein kinase 2 (Homo sapiens) (UniProt P78362); details: Compound concentration 1000.0 nM
[30] = molecular target: Activin receptor type-1B (Homo sapiens) (UniProt P36896); details: Compound concentration 1000.0 nM
[31] = molecular target: Serine/threonine-protein kinase Sgk2 (Homo sapiens) (UniProt Q9HBY8); details: Compound concentration 1000.0 nM
[32] = system: Tyrosine-protein kinase ABL1 (Homo sapiens), P00519 [T315I]; details: Compound concentration 1000.0 nM
[33] = molecular target: Dual specificity tyrosine-phosphorylation-regulated kinase 1A (Homo sapiens) (UniProt Q13627); details: Compound concentration 1000.0 nM
[34] = molecular target: Serine/threonine-protein kinase MAK (Homo sapiens) (UniProt P20794); details: Compound concentration 1000.0 nM
[35] = system: Epidermal growth factor receptor (Homo sapiens), P00533 [G719S]; details: Compound concentration 1000.0 nM
[36] = molecular target: Serine/threonine-protein kinase MARK1 (Homo sapiens) (UniProt Q9P0L2); details: Compound concentration 1000.0 nM
Chain of Serine/threonine-protein kinase MARK1 (Homo sapiens) (Q9P0L2 whole entry, looked up): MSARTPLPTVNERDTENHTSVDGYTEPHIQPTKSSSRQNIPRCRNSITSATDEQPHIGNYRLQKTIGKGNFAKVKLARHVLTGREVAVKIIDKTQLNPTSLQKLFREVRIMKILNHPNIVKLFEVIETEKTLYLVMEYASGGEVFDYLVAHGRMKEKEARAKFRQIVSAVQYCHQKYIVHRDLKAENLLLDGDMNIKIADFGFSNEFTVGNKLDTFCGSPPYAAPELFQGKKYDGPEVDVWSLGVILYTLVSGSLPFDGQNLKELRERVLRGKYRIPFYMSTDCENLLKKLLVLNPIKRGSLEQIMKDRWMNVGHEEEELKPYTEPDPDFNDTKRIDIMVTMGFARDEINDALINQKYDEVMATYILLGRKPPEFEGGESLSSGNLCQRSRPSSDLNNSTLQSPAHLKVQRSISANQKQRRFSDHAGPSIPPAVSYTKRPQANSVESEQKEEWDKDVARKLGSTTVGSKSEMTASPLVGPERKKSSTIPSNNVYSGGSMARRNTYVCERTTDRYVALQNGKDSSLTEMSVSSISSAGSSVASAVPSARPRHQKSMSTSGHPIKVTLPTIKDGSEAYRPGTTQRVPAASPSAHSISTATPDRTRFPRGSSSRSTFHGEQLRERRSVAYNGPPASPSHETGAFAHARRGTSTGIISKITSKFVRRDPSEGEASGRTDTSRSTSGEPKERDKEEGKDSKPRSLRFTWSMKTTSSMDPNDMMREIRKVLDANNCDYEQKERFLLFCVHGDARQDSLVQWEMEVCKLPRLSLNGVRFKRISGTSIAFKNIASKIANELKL

[37] = molecular target: Serine/threonine-protein kinase Nek1 (Homo sapiens) (UniProt Q96PY6); details: Compound concentration 1000.0 nM
Chain of Serine/threonine-protein kinase Nek1 (Homo sapiens) (Q96PY6 whole entry): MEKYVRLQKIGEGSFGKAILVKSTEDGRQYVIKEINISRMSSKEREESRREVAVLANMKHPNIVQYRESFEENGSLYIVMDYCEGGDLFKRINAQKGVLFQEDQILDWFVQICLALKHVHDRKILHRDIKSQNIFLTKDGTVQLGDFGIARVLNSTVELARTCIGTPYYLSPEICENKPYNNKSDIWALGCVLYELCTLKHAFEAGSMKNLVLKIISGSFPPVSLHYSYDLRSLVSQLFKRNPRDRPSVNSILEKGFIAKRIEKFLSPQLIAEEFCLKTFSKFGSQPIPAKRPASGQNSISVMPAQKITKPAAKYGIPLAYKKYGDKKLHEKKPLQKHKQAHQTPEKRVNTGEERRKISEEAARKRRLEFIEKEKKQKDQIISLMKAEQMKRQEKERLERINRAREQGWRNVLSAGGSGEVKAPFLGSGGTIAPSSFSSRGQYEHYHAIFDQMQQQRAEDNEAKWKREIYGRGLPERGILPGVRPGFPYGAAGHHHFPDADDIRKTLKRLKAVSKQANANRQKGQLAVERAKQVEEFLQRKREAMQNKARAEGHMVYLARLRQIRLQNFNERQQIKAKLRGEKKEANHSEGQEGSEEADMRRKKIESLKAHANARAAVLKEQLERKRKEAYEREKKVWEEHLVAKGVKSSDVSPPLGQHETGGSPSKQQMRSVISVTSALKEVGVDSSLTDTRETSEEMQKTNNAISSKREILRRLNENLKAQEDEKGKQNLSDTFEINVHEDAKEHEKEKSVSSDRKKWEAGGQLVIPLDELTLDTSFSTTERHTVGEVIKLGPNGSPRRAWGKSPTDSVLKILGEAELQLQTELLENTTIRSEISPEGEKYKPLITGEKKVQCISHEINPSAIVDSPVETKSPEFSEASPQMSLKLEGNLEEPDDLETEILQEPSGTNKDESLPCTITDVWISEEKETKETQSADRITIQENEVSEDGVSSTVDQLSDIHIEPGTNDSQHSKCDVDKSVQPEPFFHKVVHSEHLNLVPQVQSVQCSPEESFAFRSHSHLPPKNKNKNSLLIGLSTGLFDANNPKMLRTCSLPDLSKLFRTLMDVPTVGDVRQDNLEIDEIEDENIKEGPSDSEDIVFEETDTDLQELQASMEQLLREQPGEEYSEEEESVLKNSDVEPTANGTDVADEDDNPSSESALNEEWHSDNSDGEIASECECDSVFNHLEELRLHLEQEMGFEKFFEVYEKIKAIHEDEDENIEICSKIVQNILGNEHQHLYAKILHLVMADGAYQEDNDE

[38] = system: Tyrosine-protein kinase ABL1 (Homo sapiens), P00519 [M351T]; details: Compound concentration 1000.0 nM
[39] = molecular target: BMP-2-inducible protein kinase (Homo sapiens) (UniProt Q9NSY1); details: Compound concentration 1000.0 nM
[40] = molecular target: 5-hydroxytryptamine receptor 2A (Homo sapiens) (UniProt P28223); details: Compound concentration 10.0 uM
[41] = molecular target: Muscarinic acetylcholine receptor M5 (Homo sapiens) (UniProt P08912); details: Compound concentration 10.0 uM
Chain of Muscarinic acetylcholine receptor M5 (Homo sapiens) (P08912 whole entry): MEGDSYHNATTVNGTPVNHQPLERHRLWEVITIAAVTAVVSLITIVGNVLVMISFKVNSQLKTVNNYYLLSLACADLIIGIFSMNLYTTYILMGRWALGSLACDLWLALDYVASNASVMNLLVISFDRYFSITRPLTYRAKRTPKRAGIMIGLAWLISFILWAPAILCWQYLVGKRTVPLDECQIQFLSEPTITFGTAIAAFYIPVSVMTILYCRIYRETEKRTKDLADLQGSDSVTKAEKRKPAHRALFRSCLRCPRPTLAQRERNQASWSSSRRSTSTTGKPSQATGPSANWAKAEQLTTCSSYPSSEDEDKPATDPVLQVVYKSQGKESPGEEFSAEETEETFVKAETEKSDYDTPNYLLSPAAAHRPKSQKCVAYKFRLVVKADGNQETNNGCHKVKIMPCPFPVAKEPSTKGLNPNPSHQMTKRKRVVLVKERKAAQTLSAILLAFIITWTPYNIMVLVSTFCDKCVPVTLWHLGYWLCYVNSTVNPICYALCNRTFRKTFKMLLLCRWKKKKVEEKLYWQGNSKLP

[42] = molecular target: Mitogen-activated protein kinase kinase kinase 1 (Homo sapiens) (UniProt Q13233); details: Compound concentration 1000.0 nM
[43] = molecular target: Serine/threonine-protein kinase pim-1 (Homo sapiens) (UniProt P11309); details: Compound concentration 1000.0 nM
[44] = molecular target: Interleukin-1 receptor-associated kinase 4 (Homo sapiens) (UniProt Q9NWZ3); details: Compound concentration 1000.0 nM
[45] = molecular target: Dual specificity mitogen-activated protein kinase kinase 3 (Homo sapiens) (UniProt P46734); details: Compound concentration 1000.0 nM

Chain of Tyrosine-protein kinase JAK1 (Homo sapiens) (P23458 whole entry): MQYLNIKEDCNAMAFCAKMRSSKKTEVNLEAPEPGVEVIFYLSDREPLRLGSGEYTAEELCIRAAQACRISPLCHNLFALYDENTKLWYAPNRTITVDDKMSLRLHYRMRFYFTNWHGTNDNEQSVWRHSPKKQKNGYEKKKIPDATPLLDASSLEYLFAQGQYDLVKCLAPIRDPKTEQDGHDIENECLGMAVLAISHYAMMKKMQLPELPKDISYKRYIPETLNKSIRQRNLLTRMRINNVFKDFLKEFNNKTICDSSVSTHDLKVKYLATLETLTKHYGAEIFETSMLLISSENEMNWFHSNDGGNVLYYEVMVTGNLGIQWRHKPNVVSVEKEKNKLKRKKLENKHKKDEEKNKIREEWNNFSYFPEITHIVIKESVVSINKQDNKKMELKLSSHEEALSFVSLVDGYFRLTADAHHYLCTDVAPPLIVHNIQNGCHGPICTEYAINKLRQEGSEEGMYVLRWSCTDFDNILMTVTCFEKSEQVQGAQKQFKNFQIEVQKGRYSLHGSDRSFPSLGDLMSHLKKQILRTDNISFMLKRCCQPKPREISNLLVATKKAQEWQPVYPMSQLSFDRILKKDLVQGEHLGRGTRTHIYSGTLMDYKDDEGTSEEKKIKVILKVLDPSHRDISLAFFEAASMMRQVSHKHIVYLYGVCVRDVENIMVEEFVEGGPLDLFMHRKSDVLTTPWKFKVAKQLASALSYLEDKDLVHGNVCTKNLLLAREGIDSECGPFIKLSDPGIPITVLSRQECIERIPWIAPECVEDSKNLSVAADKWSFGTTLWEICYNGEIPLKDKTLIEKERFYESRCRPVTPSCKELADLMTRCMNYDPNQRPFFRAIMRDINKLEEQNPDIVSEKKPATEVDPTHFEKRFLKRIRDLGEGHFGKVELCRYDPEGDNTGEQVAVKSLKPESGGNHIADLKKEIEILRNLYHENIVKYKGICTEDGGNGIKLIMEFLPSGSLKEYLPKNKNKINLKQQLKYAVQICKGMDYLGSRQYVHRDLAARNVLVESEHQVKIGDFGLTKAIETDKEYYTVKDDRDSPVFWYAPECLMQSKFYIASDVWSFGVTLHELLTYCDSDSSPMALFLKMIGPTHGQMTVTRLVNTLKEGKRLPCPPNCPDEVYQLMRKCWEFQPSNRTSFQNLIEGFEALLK

CO[C@@H](C)c1c(Nc2ccc([C@@H](N(C)C(=O)C3CCS(=O)(=O)CC3)C(F)(F)F)cc2)cnc2cc(Cl)nn12 [NVS-MALT1-C]
residual activity [1]: 100%
residual activity [2]: 90%
residual activity [3]: 95%
residual activity [4]: 100%
residual activity [5]: 84%
residual activity [6]: 98%
residual activity [7]: 90%
residual activity [8]: 100%
residual activity [9]: 90%
residual activity [10]: 81%
residual activity [11]: 99%
residual activity [12]: 100%
residual activity [13]: 29%
residual activity [14]: 95%
residual activity [15]: 100%
residual activity [16]: 100%
residual activity [17]: 92%
inhibition [18]: 57.1%
residual activity [19]: 94%
residual activity [20]: 100%
residual activity [21]: 82%
residual activity [22]: 100%
residual activity [23]: 50%
residual activity [24]: 97%
residual activity [25]: 99%
residual activity [26]: 88%
residual activity [27]: 99%
residual activity [28]: 87%
residual activity [29]: 99%
residual activity [30]: 100%
residual activity [31]: 99%
residual activity [32]: 100%
residual activity [33]: 92%
residual activity [34]: 100%
residual activity [35]: 96%
residual activity [36]: 81%
residual activity [37]: 100%
residual activity [38]: 59%
residual activity [39]: 91%
inhibition [40]: 4.93%
inhibition [41]: 7.57%
residual activity [42]: 96%
residual activity [43]: 100%
residual activity [44]: 89%
residual activity [45]: 90%

CO[C@@H](C)c1c(Nc2ccc([C@H](N(C)C(=O)C3CCS(=O)(=O)CC3)C(F)(F)F)cc2)cnc2cc(Cl)nn12 [NVS-MALT1]
residual activity [1]: 100%
residual activity [2]: 91%
residual activity [3]: 89%
residual activity [4]: 100%
residual activity [5]: 89%
residual activity [6]: 100%
residual activity [7]: 94%
residual activity [8]: 100%
residual activity [9]: 97%
residual activity [10]: 76%
residual activity [11]: 100%
residual activity [12]: 85%
residual activity [13]: 43%
residual activity [14]: 100%
residual activity [15]: 100%
residual activity [16]: 100%
residual activity [17]: 76%
inhibition [18]: 49.1%
residual activity [19]: 88%
residual activity [20]: 78%
residual activity [21]: 93%
residual activity [22]: 100%
residual activity [23]: 50%
residual activity [24]: 94%
residual activity [25]: 96%
residual activity [26]: 88%
residual activity [27]: 99%
residual activity [28]: 90%
residual activity [29]: 100%
residual activity [30]: 72%
residual activity [31]: 91%
residual activity [32]: 100%
residual activity [33]: 75%
residual activity [34]: 100%
residual activity [35]: 100%
residual activity [36]: 69%
residual activity [37]: 94%
residual activity [38]: 65%
residual activity [39]: 89%
inhibition [40]: 2.45%
inhibition [41]: 14.6%
residual activity [42]: 100%
residual activity [43]: 88%
residual activity [44]: 88%
residual activity [45]: 93%
